Reference: publication PMC7641324, “Small-molecule sensitization of RecBCD helicase–nuclease to a Chi hotspot-activated state” (Nucleic Acids Research, 2020)

Molecular target: T1, RecBCD enzyme (RecB subunit) (Escherichia coli, UniProt P08394)
T1 construct: RecBCD holoenzyme (330 kDa, three subunits); with RecC and RecD
Test: RecBCD nuclease assay with [3H] phage T7 DNA, […] ATP; unaffected by Triton X-100
Assay type: biochemical

T1 sequence (P08394 2-1180): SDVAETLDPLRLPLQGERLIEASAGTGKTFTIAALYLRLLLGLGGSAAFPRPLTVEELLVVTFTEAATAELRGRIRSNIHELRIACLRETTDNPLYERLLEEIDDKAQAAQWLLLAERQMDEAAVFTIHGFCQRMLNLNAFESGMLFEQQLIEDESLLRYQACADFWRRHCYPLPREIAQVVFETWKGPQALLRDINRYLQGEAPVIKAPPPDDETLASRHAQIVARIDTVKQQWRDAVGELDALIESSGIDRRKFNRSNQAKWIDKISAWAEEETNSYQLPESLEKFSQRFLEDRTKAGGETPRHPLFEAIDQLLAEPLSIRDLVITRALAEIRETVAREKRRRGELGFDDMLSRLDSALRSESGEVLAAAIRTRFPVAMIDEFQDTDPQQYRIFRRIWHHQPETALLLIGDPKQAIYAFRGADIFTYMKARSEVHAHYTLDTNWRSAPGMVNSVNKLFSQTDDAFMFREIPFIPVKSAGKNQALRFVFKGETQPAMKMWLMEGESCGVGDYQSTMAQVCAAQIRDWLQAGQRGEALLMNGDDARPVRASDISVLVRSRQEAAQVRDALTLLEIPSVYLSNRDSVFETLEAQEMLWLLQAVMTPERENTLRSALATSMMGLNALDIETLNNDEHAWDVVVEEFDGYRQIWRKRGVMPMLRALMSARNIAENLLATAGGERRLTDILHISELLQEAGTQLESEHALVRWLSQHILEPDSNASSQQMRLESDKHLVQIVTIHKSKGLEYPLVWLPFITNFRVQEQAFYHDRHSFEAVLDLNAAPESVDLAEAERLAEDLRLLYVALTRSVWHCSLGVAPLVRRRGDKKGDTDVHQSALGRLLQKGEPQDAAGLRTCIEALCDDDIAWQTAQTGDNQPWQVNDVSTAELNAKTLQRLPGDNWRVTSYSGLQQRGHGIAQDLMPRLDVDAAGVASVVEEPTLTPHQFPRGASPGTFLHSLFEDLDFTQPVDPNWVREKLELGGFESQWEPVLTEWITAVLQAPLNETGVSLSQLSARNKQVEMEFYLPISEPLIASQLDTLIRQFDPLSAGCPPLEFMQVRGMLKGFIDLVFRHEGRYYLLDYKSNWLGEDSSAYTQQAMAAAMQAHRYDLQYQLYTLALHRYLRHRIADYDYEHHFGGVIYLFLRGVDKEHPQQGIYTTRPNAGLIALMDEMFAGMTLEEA
T1 sequence (P07648 whole entry, further chain): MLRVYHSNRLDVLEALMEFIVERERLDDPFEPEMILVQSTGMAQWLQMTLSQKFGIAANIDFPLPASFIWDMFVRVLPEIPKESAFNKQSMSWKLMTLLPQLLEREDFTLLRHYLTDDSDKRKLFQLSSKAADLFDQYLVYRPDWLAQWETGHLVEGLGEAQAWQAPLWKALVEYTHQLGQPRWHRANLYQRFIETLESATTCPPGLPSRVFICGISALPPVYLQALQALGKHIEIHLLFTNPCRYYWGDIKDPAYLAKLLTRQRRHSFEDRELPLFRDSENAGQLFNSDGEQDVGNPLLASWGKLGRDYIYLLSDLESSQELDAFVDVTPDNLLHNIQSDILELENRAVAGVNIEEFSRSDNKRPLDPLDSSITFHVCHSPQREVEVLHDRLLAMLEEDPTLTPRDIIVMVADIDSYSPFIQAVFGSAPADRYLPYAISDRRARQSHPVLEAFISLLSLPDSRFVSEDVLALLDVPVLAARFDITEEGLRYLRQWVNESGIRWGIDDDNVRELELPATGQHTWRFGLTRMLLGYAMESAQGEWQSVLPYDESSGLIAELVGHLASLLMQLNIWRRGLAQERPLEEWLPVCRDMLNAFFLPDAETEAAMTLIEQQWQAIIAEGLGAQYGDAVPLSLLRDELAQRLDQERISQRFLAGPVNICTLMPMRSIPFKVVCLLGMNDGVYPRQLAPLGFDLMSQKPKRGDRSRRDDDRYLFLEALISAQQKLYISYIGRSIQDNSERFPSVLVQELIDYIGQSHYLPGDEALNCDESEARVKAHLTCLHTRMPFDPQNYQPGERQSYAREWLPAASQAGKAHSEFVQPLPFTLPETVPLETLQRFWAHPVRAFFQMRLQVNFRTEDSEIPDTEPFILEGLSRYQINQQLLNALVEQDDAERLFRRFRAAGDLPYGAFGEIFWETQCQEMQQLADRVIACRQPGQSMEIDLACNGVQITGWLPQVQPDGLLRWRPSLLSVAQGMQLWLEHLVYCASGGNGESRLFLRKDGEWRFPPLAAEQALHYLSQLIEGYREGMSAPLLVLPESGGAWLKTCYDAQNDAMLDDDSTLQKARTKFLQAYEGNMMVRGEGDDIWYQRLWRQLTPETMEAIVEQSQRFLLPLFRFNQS
T1 sequence (P04993 whole entry, further chain): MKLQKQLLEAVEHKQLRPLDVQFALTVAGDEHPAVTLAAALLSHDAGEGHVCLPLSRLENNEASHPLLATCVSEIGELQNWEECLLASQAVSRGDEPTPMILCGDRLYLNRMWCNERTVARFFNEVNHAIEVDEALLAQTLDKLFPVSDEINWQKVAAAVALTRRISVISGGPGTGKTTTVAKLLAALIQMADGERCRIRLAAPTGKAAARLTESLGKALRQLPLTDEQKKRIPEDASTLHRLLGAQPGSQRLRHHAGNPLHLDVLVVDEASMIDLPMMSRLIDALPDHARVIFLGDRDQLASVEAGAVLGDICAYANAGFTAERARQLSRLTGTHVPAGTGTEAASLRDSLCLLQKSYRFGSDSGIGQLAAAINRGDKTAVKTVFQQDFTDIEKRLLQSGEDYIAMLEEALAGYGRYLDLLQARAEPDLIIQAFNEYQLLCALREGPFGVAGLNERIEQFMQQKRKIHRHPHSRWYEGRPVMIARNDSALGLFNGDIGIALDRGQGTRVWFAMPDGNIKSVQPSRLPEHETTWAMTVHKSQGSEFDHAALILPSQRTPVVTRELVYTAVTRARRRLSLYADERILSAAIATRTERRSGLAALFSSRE

Structure (SMILES): CCC(Sc1nnc2n(CCOc3ccccc3Cl)c3ccccc3n12)C(=O)O (stereo not shown) [NSAC1003, 2-({7-[2-(2-chlorophenoxy)ethyl]-2,4,5,7-tetraazatricyclo[6.4.0.0^2,^6]dodeca-1(8),3,5,9,11-pentaen-3-yl}sulfanyl)butanoic acid]
- IC50: 6.3 ± 0.3 µM
